Results published in ChEMBL document CHEMBL1201862, “PubChem BioAssay data set” (2004).
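Each compound was tested at five concentrations against cells in 96-well plates for 48 hours. The concentration for 50% growth inhibition is given as GI50.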 Active and inactive are the calls of the source. No stated cut-off is given here; in the data, active = GI50 up to about 1.1 µM and inactive = higher.

Columns and labels:
Experiment in all cases: NCI-60 cell line screen, 48 h
HOP-18 = tested on: HOP-18
M19-MEL = tested on: M19-MEL
SNB-78 = tested on: SNB-78
RXF 631 = tested on: RXF 631
DU-145 = tested on: DU-145
T47D = tested on: T47D
Hs-578T = tested on: Hs-578T
MDA-N = tested on: MDA-N
BT-549 = tested on: BT-549

Row | SMILES | GI50 (HOP-18) | GI50 (M19-MEL) | GI50 (SNB-78) | GI50 (RXF 631) | GI50 (DU-145) | GI50 (T47D) | GI50 (Hs-578T) | GI50 (MDA-N) | GI50 (BT-549)
1 | Cc1ccccc1N(CC(=O)O)S(=O)(=O)c1ccccc1 | > 100 µM (inactive) | > 100 µM (inactive) | – | – | – | – | – | – | –
2 | NC(=O)N/C=C1\C(=O)Oc2ccccc2C1=O | – | – | 43.2 µM (inactive) | – | – | – | – | – | –
3 | N=C(N)N/N=C(/CC1OC(=O)c2ccccc21)c1ccc2ccccc2c1 (stereo not drawn) | 18.5 µM (inactive) | 16.2 µM (inactive) | > 100 µM (inactive) | 21.4 µM (inactive) | – | – | – | – | –
4 | CC(C)C1N2CCCCC2[C@@H]2c3[nH]c4ccccc4c3CCN12 (stereo partly drawn) | > 100 µM (inactive) | > 100 µM (inactive) | > 100 µM (inactive) | – | – | – | – | – | –
5 | CC(=O)CCCCO | – | > 100 µM (inactive) | > 100 µM (inactive) | – | – | – | – | – | –
6 | Cc1ccc([Se][Se]c2ccc(C)cc2)cc1 | 6.46 µM (inactive) | 13.7 µM (inactive) | 16.5 µM (inactive) | 21.9 µM (inactive) | – | – | – | – | –
7 | C[C@]12Cc3cn[nH]c3C(=O)C1CC[C@@H]1C2CC[C@@]2(C)C1CC[C@]2(C)O (stereo partly drawn) | > 100 µM (inactive) | > 100 µM (inactive) | > 100 µM (inactive) | > 100 µM (inactive) | – | – | – | – | –
8 | COC1(OC)CC2C=C(S(=O)(=O)c3ccccc3)C1N(Cc1ccccc1)C2=O (stereo not drawn) | > 100 µM (inactive) | 32.4 µM (inactive) | 21.2 µM (inactive) | 26.3 µM (inactive) | – | – | – | – | –
9 | COc1ccc(C2SCC(=O)N2NC(=O)c2ccncc2)cc1F (stereo not drawn) | 7.29 µM (inactive) | – | > 100 µM (inactive) | – | – | – | – | – | –
10 | COc1cc(Cl)c2c3c(c(C(C)=O)oc13)CCC2 | > 100 µM (inactive) | > 100 µM (inactive) | > 100 µM (inactive) | > 100 µM (inactive) | – | – | – | – | –
11 | COc1ccc(C2c3cc4c(cc3OC(O)(CO)C2C(=O)O)OCO4)cc1.COc1ccc(C2c3cc4c(cc3OC3(O)COC(=O)C23)OCO4)cc1 (stereo not drawn) | 50.4 µM (inactive) | 4.6 µM (inactive) | 23.2 µM (inactive) | 19.5 µM (inactive) | – | – | – | – | –
12 | COc1cc(-c2cc(=O)c3c(O)c(OC)c(OC)c(OC)c3o2)ccc1O | 32.4 µM (inactive) | 22.8 µM (inactive) | 27.7 µM (inactive) | – | – | – | – | – | –
13 | Nc1nc(SCc2ccc([N+](=O)[O-])cc2)nc2c1ncn2C1OC(COP(=O)(O)O)C(O)C1O (stereo not drawn) | – | – | > 100 µM (inactive) | – | – | – | – | – | –
14 | COc1cc(/C=C\c2ccc(Br)cc2)cc(OC)c1OC | 0.000721 µM (active) | 0.00524 µM (active) | 0.000305 µM (active) | 0.01 µM (active) | – | – | – | – | –
15 | C[C@]12CC[C@H](OC(=O)Nc3ccccc3)CC1=CC[C@@H]1C2CC[C@]2(C)/C(=N/OC(=O)Nc3ccccc3)CCC12 (stereo partly drawn) | 2.4 µM (inactive) | > 100 µM (inactive) | > 100 µM (inactive) | 6.37 µM (inactive) | – | – | – | – | –
16 | CC[C@@H](C(=O)[C@@H](C)[C@@H](O)[C@H](C)CCc1ccc(C)c(O)c1C(=O)O)[C@H]1O[C@](CC)([C@H]2CC[C@](O)(CC)[C@H](C)O2)C[C@@H]1C [LASALOCID A SODIUM] | 3.08 µM (inactive) | 1.65 µM (inactive) | 3.13 µM (inactive) | 0.741 µM (active) | – | – | – | – | –
17 | O=C(NN1C(=O)C(Cl)C1c1cccc(O)c1)c1ccccc1O (stereo not drawn) | 24.8 µM (inactive) | > 100 µM (inactive) | > 100 µM (inactive) | – | – | – | – | – | –

Row | SMILES | GI50 (HOP-18) | GI50 (M19-MEL) | GI50 (SNB-78) | GI50 (RXF 631) | GI50 (DU-145) | GI50 (T47D) | GI50 (Hs-578T) | GI50 (MDA-N) | GI50 (BT-549)
18 | CCOC(=O)/C(O)=C1\C(=O)N(C)C(=O)C1c1cccc(OC)c1 (stereo not drawn) | > 100 µM (inactive) | > 100 µM (inactive) | > 100 µM (inactive) | – | – | – | – | – | –
19 | O=c1[nH]c2cc(-c3ccccc3)nc-2nn1-c1c(Cl)cc(Cl)cc1Cl | 18.8 µM (inactive) | 22.8 µM (inactive) | 37.5 µM (inactive) | 46 µM (inactive) | – | – | – | – | –
20 | CC1=C(O)C(=O)C2C(=O)C1C(C)C2c1ccc(C)cc1 (stereo not drawn) | – | > 100 µM (inactive) | > 100 µM (inactive) | – | – | – | – | – | –
21 | C=C=C(C(=O)OC)[S+]([O-])c1ccccc1[N+](=O)[O-] (stereo not drawn) | > 100 µM (inactive) | > 100 µM (inactive) | > 100 µM (inactive) | – | – | – | – | – | –
22 | COc1ccc(OC(C)=O)c2c1CCC=CC2=O | – | – | 38.5 µM (inactive) | – | – | – | – | – | –
23 | O=C(Cc1nc2ccccc2o1)C(=O)Nc1cccc(C(F)(F)F)c1 | 45 µM (inactive) | > 100 µM (inactive) | > 100 µM (inactive) | > 100 µM (inactive) | – | – | – | – | –
24 | Cc1nc(-n2nc(-c3ccccc3)cc2-c2ccccc2)sc1C(/C=C/c1ccc([N+](=O)[O-])cc1)=N/NC(=O)c1ccncc1 | – | 25.4 µM (inactive) | 17.3 µM (inactive) | – | – | – | – | – | –
25 | COc1ccc(/C=c2\sc3nnc(CCC(=O)Nc4cccc(C(F)(F)F)c4)n3c2=O)cc1 | 50.4 µM (inactive) | > 84.1 µM (inactive) | > 100 µM (inactive) | > 100 µM (inactive) | – | – | – | – | –
26 | CC(O)C(NC(=O)C(CS)NC(=O)C(CO)NC(=O)C(CCCCN)NC(=O)C(Cc1c[nH]c2ccccc12)NC(=O)C(Cc1ccc(O)cc1)NC(=O)C(CS)NC(=O)C(N)Cc1ccccc1)C(N)=O (stereo not drawn) | 22.6 µM (inactive) | 26 µM (inactive) | 31.3 µM (inactive) | 19.1 µM (inactive) | > 25 µM (inactive) | > 25 µM (inactive) | > 25 µM (inactive) | > 25 µM (inactive) | –
27 | COc1cc2c(cc1OC)C(Cl)C(c1ccc(Cl)c(Cl)c1)=C2Cl (stereo not drawn) | 12.9 µM (inactive) | 9.02 µM (inactive) | 5.56 µM (inactive) | – | – | – | – | – | –
28 | CCc1cccc(C(C)C)c1NC(=O)CC1Sc2ccccc2NC1=O (stereo not drawn) | > 100 µM (inactive) | 40.6 µM (inactive) | > 100 µM (inactive) | – | – | – | – | – | –
29 | O=C1C=CC2(C=C1)C[C@H](NC(=O)C(F)(F)F)C(=O)O2 | – | 23.6 µM (inactive) | > 100 µM (inactive) | – | – | – | – | – | –
30 | CC(=O)NC(CCCCN(Cc1ccccc1)C(=O)N(C)N=O)C(=O)NCc1ccccc1 (stereo not drawn) | – | > 100 µM (inactive) | > 100 µM (inactive) | > 100 µM (inactive) | – | – | – | – | –
31 | COc1cc(/C=N\O)cc(/C=N/O)c1O | – | – | – | – | > 100 µM (inactive) | 26.4 µM (inactive) | 17.6 µM (inactive) | 39.9 µM (inactive) | 45.2 µM (inactive)
32 | CCc1cccc(C(C)C)c1NC(=O)C(=O)C(CC(=O)Nc1ccc(Cl)c(Cl)c1)C(=O)OC (stereo not drawn) | 99.5 µM (inactive) | 52.5 µM (inactive) | > 100 µM (inactive) | > 100 µM (inactive) | – | – | – | – | –
33 | CCCSc1ccc2[nH]c(N3C(=O)/C(=C/c4ccccc4)N=C3c3ccccc3)cc2c1 | – | – | – | – | 35.6 µM (inactive) | 22.8 µM (inactive) | 20.3 µM (inactive) | 10.2 µM (inactive) | 19.9 µM (inactive)
34 | COCCCNC(=O)C1C(=O)C(=O)N(CCCOC)C1=O (stereo not drawn) | > 100 µM (inactive) | > 100 µM (inactive) | > 100 µM (inactive) | > 100 µM (inactive) | – | – | – | – | –
